Reference: patent US20130005747A1, “METHOD FOR SELECTING A CANCER THERAPY” (Cyclacel Limited, priority 2010, published 2013)

What was measured:
Test in all cases: Fractional growth, 72 h seliciclib
Assay type in all cases: cell-based, human
SCC-25 = SCC-25 (Head & Neck), 15 μM seliciclib
Text: (§1) A total of 270 human cancer cell lines from diverse cancer histopathologic types were investigated.

PA-TU-8902 = PA-TU-8902 (Pancreas), 15 μM seliciclib
Text: as §1

KMRC-1 = KMRC-1 (Kidney), 15 μM seliciclib
Text: as §1

1A6 = 1A6 (Bladder), 15 μM seliciclib
Text: as §1

UO-31 = UO-31 (Kidney), 15 μM seliciclib
Text: as §1

HTC-C3 = HTC-C3 (Thyroid), 15 μM seliciclib
Text: as §1

RT4 = RT4 (Bladder), 15 μM seliciclib
Text: as §1

EN = EN (Uterus), 15 μM seliciclib
Text: as §1

TCCSUP = TCCSUP (Bladder), 15 μM seliciclib
Text: as §1

NH-6 = NH-6 (Kidney), 15 μM seliciclib
Text: as §1

T.T = T.T (Esophagus), 15 μM seliciclib
Text: as §1

MKN1 = MKN1 (Stomach), 15 μM seliciclib
Text: as §1

DBTRG-05MG = DBTRG-05MG (Brain), 15 μM seliciclib
Text: as §1

BT-549 = BT-549 (Breast), 15 μM seliciclib
Text: as §1

MES-SA = MES-SA (Uterus), 15 μM seliciclib
Text: as §1

KYSE-140 = KYSE-140 (Esophagus), 15 μM seliciclib
Text: as §1

KP-4 = KP-4 (Pancreas), 15 μM seliciclib
Text: as §1

RT112/84 = RT112/84 (Bladder), 15 μM seliciclib
Text: as §1

NCI-H1734 = NCI-H1734 (Lung: NSCLC), 15 μM seliciclib
Text: as §1

SK-OV-3 = SK-OV-3 (Ovary), 15 μM seliciclib
Text: as §1

Saos-2 = Saos-2 (Bone), 15 μM seliciclib
Text: as §1

HPAC = HPAC (Pancreas), 15 μM seliciclib
Text: as §1

JHH-6 = JHH-6 (Liver), 15 μM seliciclib
Text: as §1

Panc 03.27 = Panc 03.27 (Pancreas), 15 μM seliciclib
Text: as §1

JHU-019 = JHU-019 (Head & Neck), 15 μM seliciclib
Text: as §1

PC-3 = PC-3 (Prostate), 15 μM seliciclib
Text: as §1

DAN-G = DAN-G (Pancreas), 15 μM seliciclib
Text: as §1

A2780 = A2780 (Ovary), 15 μM seliciclib
Text: as §1

RPMI 2650 = RPMI 2650 (Head & Neck), 15 μM seliciclib
Text: as §1

RERF-GC-1B = RERF-GC-1B (Stomach), 15 μM seliciclib
Text: as §1

C32 = C32 (Skin), 15 μM seliciclib
Text: as §1

DK-MG = DK-MG (Brain), 15 μM seliciclib
Text: as §1

NCI-H630 = NCI-H630 (Intestine), 15 μM seliciclib
Text: as §1

SN-12C = SN-12C (Kidney), 15 μM seliciclib
Text: as §1

H2373 = H2373 (Lung), 15 μM seliciclib
Text: as §1

TYK-nu = TYK-nu (Ovary), 15 μM seliciclib
Text: as §1

DoTc2 4510 = DoTc2 4510 (Cervix), 15 μM seliciclib
Text: as §1

KP-1N = KP-1N (Pancreas), 15 μM seliciclib
Text: as §1

**Q.** Which “Fractional Growth” value (SCC-25) does the source give for `CC[C@H](CO)Nc1nc(NCc2ccccc2)c2ncn(C(C)C)c2n1` [seliciclib, roscovitine] here?
**A.** 0.571

**Q.** What about the “Fractional Growth” value (PA-TU-8902) of the same compound?
**A.** 0.5577

**Q.** And the “Fractional Growth” value (KMRC-1)?
**A.** 0.554

**Q.** And the “Fractional Growth” value (1A6)?
**A.** 0.6475

**Q.** What about the “Fractional Growth” value (UO-31) of the same compound?
**A.** 0.3152

**Q.** And the “Fractional Growth” value (HTC-C3)?
**A.** 0.3914

**Q.** What about the “Fractional Growth” value (RT4) of the same compound?
**A.** 0.9342

**Q.** What about the “Fractional Growth” value (EN) of the same compound?
**A.** 0.1503

**Q.** What about the “Fractional Growth” value (TCCSUP) of the same compound?
**A.** 0.6407

**Q.** What about the “Fractional Growth” value (NH-6) of the same compound?
**A.** 0.5218

**Q.** And the “Fractional Growth” value (T.T)?
**A.** 0.1271

**Q.** And the “Fractional Growth” value (MKN1)?
**A.** 0.3594

**Q.** What about the “Fractional Growth” value (DBTRG-05MG) of the same compound?
**A.** 0.7139

**Q.** What about the “Fractional Growth” value (BT-549) of the same compound?
**A.** 0.758

**Q.** And the “Fractional Growth” value (MES-SA)?
**A.** 0.3922

**Q.** And the “Fractional Growth” value (KYSE-140)?
**A.** 0.6278

**Q.** What about the “Fractional Growth” value (KP-4) of the same compound?
**A.** 0.5607

**Q.** And the “Fractional Growth” value (RT112/84)?
**A.** 0.318

**Q.** What about the “Fractional Growth” value (NCI-H1734) of the same compound?
**A.** 0.2849

**Q.** What about the “Fractional Growth” value (SK-OV-3) of the same compound?
**A.** 0.7375

**Q.** What about the “Fractional Growth” value (Saos-2) of the same compound?
**A.** 0.5733

**Q.** What about the “Fractional Growth” value (HPAC) of the same compound?
**A.** 0.7062

**Q.** And the “Fractional Growth” value (JHH-6)?
**A.** 0.3234

**Q.** What about the “Fractional Growth” value (Panc 03.27) of the same compound?
**A.** 0.5632

**Q.** And the “Fractional Growth” value (JHU-019)?
**A.** 0.4229

**Q.** What about the “Fractional Growth” value (PC-3) of the same compound?
**A.** 0.4021

**Q.** And the “Fractional Growth” value (DAN-G)?
**A.** 0.6841

**Q.** What about the “Fractional Growth” value (A2780) of the same compound?
**A.** 0.4827

**Q.** What about the “Fractional Growth” value (RPMI 2650) of the same compound?
**A.** 0.1937

**Q.** What about the “Fractional Growth” value (RERF-GC-1B) of the same compound?
**A.** 0.6411

**Q.** What about the “Fractional Growth” value (C32) of the same compound?
**A.** 0.5391

**Q.** What about the “Fractional Growth” value (DK-MG) of the same compound?
**A.** 0.8572

**Q.** And the “Fractional Growth” value (NCI-H630)?
**A.** 0.7543

**Q.** What about the “Fractional Growth” value (SN-12C) of the same compound?
**A.** 0.6383

**Q.** What about the “Fractional Growth” value (H2373) of the same compound?
**A.** 0.6168

**Q.** What about the “Fractional Growth” value (TYK-nu) of the same compound?
**A.** 0.3005

**Q.** What about the “Fractional Growth” value (DoTc2 4510) of the same compound?
**A.** 0.6205

**Q.** What about the “Fractional Growth” value (KP-1N) of the same compound?
**A.** 0.6045
